In patent US20210023012A1, “Solid Pharmaceutical Compositions for Treating HCV” (AbbVie Inc., priority 2019, published 2021):
Marks after values point to notes of the source that are not given here.

Columns and labels:
[1] = Binding to human plasma proteins; format: in vitro ADME; conditions: read-out: % Bound to human plasma proteins (converted)
[2] = Mass balance studies with [14C] compound, single dose; format: in vivo, human; conditions: single dose of [14C] compound
[3] = Phase 1 single-dose crossover: bioavailability and food effect of Compound 1/Compound 2 bilayer tablets; format: in vivo, human; conditions: for Cmax / AUC(0-inf) / AUC(0-t) / half-life / Tmax: human, in vivo, oral, N = 23; for Cmax / AUC(0-inf) / AUC(0-t): geometric mean; for half-life: harmonic mean; for Tmax: median
Protocol: Phase 1, single-dose, four-period, randomized, complete crossover clinical trials were conducted to determine the bioavailability and food effect of the Compound 1/Compound 2 film-coated bilayer tablets. Tablets described in Table 1b were used in Regimens A, B and C, and separate tablets containing either Compound 1 or Compound 2 were used in Regimen D. Subjects took a single dose of Compound 1/Compound 2 on Day 1 of each Period. There was a washout of 4 days between doses. • i. Regimens A and D: study drugs were taken under fasting conditions. • ii. Regimen B: study drugs were taken approximately 30 minutes after start of moderate-fat breakfast (about 30% calories from fat). • iii. Regimen C: study drugs were taken approx. 30 minutes after start of high-fat breakfast (50% calories from fat). For Regimens A, B and C, the single dose consisted of three tablets of Table 1b, each tablet contains 100 mg/40 mg Compound 1/Compound 2. For Regimen D, the single dose contained three tablets of Compound 1, each of which contained 100 mg Compound 1, as well as three tablets of Compound 2, each of which contained 40 mg Compound 2. [table] [table]

Blood-to-plasma ratio = format: in vitro ADME; conditions: human, whole blood/plasma
[4] = Pharmacokinetic properties in healthy subjects; format: in vivo, human; conditions: for Tmax: oral, median, single doses
[5] = Phase 1 single-dose crossover: bioavailability and food effect of Compound 1/Compound 2 bilayer tablets; format: in vivo, human; conditions: film-coated vs uncoated bilayer tablets, additional studies
[6] = Steady-state pharmacokinetics of film-coated granules in pediatric subjects by age group; format: in vivo, human; parameters: Ctrough: unit not given here; conditions: for Ctrough / AUC: Week 2; for AUC: human, oral, film-coated granules
Protocol: The study was designed to assess the steady state AUC and to assess the pharmacokinetics (PK) of Compound 1/Compound 2 in pediatric subjects by age group. […] Subjects were enrolled in this study and dosed with film-coated granules containing Compound 1/Compound 2 as generally described above in Example 3. [table] An intensive PK sample draw was done at the Week 2 visit with blood samples taken immediately prior to dose (0 hour) and at 2, 4, 6, and 12 hours post dose.

P-gp = P-gp (Homo sapiens, UniProt P08183); test: Substrate of transporter P-gp; format: in vitro ADME
[7] = Single-dose crossover: bioavailability of Compound 1/Compound 2 mini-tablets; format: in vivo, human; conditions: for Cmax / AUC(0-inf) / AUC(0-t) / half-life / Tmax: human, in vivo, oral, N = 14; for Cmax / AUC(0-inf) / AUC(0-t): geometric mean; for half-life: harmonic mean; for Tmax: median
Protocol: In comparison, when administered with food, the mini-tablets provided an AUC that was only 5% lower than that provided by the regular tablets. […] All of the reference AUCs of the regular tablets were measured under fasting conditions.
14 subjects were enrolled in this study and dosed with co-formulated Compound 1/Compound 2 in mini-tablets. One subject spilled 4 mini-tablets (out of 100-150 total mini-tablets) during dosing of Period 2 (Regimen G) and was not excluded from the analysis. The mini-tablets were prepared according to a process similar to that described in Example 2.

clinical = conditions: human, in vivo
From the text: Target AUC was derived from the geometric mean of AUC values from a population of adult subjects who received Compound 1 and Compound 2.

[8] = Predicted PK exposures (Pop-PK AUC) in pediatric subjects; format: in vivo; parameters: concentration or dose not given beside the values; conditions: human, oral
From the text: The predicted PK exposures (“Pop-PK AUC”) of Compound 1/Compound 2 based on all PK information collected in the study (including data from other study weeks) is shown in Table 13 and Table 13a.

[9] = Regimen A: single dose bilayer tablets 300 mg/120 mg, fasting
[10] = Regimen B: single dose bilayer tablets 300 mg/120 mg with moderate fat breakfast
[11] = Regimen C: single dose bilayer tablets 300 mg/120 mg with high fat breakfast
[12] = Regimen D: single dose separate Compound 1 tablets (3 × 100 mg) and Compound 2 tablets (3 × 40 mg), fasting
[13] = mean systemic exposure with moderate to high fat meals
[14] = Regimen F: single dose mini-tablets 200 mg/120 mg, fasting
[15] = Regimen G: single dose mini-tablets 200 mg/120 mg, non-fasting
[16] = Regimen J: two Compound 1 tablets (100 mg each) and three Compound 2 tablets (40 mg each), fasting

P-gp, sequence (P08183 whole entry): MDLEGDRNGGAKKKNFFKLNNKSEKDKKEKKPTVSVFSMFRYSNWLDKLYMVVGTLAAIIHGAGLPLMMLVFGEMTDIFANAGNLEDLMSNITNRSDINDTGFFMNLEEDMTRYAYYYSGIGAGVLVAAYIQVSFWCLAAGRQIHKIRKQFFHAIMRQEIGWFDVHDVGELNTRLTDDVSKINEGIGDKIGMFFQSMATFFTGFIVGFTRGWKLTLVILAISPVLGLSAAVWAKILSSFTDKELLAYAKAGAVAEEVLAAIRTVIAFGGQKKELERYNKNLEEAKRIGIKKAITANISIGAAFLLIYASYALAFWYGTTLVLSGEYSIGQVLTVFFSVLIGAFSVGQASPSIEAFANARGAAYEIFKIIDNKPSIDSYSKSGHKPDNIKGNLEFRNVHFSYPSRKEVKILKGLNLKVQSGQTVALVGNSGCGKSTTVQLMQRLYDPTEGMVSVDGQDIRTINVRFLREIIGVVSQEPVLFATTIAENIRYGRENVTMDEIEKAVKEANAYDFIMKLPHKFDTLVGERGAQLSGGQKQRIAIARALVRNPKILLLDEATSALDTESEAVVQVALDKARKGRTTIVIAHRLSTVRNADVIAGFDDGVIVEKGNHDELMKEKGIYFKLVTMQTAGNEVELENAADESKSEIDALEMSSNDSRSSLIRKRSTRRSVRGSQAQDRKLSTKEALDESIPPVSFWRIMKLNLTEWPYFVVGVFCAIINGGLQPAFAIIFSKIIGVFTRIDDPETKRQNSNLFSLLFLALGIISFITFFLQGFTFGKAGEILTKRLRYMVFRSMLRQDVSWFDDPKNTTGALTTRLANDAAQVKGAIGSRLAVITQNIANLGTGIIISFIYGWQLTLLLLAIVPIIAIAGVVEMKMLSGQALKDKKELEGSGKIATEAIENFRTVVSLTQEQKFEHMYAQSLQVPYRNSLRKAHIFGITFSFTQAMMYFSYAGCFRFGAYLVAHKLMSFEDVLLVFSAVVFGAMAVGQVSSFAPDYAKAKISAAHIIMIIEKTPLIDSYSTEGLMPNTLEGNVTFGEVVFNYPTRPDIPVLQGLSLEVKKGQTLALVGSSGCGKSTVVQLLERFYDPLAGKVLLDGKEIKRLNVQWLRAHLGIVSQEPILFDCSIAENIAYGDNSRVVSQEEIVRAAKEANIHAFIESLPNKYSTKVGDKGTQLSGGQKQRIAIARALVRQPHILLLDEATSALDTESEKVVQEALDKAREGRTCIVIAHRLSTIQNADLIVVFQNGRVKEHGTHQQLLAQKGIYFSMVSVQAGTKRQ

fraction unbound [1]: 0.025
% of dose excreted in faeces [2]: 92.1^d %
% of dose excreted in urine [2]: 0.7%
Effect of administration with food on bioavailability ([3]; bilayer tablets): significantly improved
Cmax ([3]; Regimen A: single dose bilayer tablets 300 mg/120 mg (3 × 100 mg/40 mg), fasting): 294 ng/mL
AUC(0-inf) [3, 9]: 1150 ng·h/mL
AUC(0-t) [3, 9]: 1150 ng·h/mL
half-life [3, 9]: 6 h
Tmax [3, 9]: 3 h
AUC(0-inf) [3, 10]: 3040 ng·h/mL
AUC(0-t) [3, 10]: 3040 ng·h/mL
Cmax [3, 10]: 937 ng/mL
half-life [3, 10]: 6 h
Tmax [3, 10]: 4 h
AUC(0-inf) [3, 11]: 2120 ng·h/mL
AUC(0-t) [3, 11]: 2110 ng·h/mL
Cmax [3, 11]: 633 ng/mL
half-life [3, 11]: 6.3 h
Tmax [3, 11]: 5 h
AUC(0-inf) [3, 12]: 2620 ng·h/mL
AUC(0-t) [3, 12]: 2620 ng·h/mL
Cmax [3, 12]: 803 ng/mL
half-life [3, 12]: 5.7 h
Tmax [3, 12]: 2 h
blood plasma ratio (Blood-to-plasma ratio): 0.57
Metabolism ([4]; Biotransformation): Secondary
Major route of elimination ([4]; human, in vivo): Biliary
Tmax ([4]; human, in vivo, healthy subjects, read-out: Tmax of granules): 3 to 4 h
Tmax ([4]; human, in vivo, healthy subjects, read-out: Tmax of tablets): 5 h
half-life ([4]; human, in vivo, healthy subjects, read-out: t1/2 at steady-state): 6 to 9 h
Effect of meal (relative to fasting) on adult tablets, ↑ [4, 13]: ↑ 83-163%
Effect of meal (relative to fasting) on granules, ↑ [4, 13]: ↑ 131-168%
Impact of film-coating on bioavailability [5]: minimal impact
Ctrough ([6]; 3 to <6 years old, post-adjustment 150 mg/60 mg, N 10): 9.8
Ctrough ([6]; 6 to <9 years old, post-adjustment 200 mg/80 mg, N 9): 8.2
Ctrough ([6]; 9 to <12 years old, post-adjustment 250 mg/100 mg, N 10): 17.0
AUC ([6]; blood, 3 to <6 years old, post-adjustment, 3 sachets, 150 mg/60 mg, N 10, read-out: AUC): 6700 ng·h/mL
AUC ([6]; blood, 6 to <9 years old, post-adjustment, 4 sachets, 200 mg/80 mg, N 9, read-out: AUC): 5970 ng·h/mL
AUC ([6]; blood, 9 to <12 years old, post-adjustment, 5 sachets, 250 mg/100 mg Compound 1/Compound 2, N 10, read-out: AUC): 8670 ng·h/mL
AUC ([6]; in vivo, 3 to <6 years old, pre-adjustment, 3 sachets, 120 mg/45 mg, read-out: AUC, Geometric Mean): 3030 ng·h/mL
AUC ([6]; in vivo, 6 to <9 years old, pre-adjustment, 4 sachets, 160 mg/60 mg, read-out: AUC, Geometric Mean): 1680 ng·h/mL
AUC ([6]; in vivo, 9 to <12 years old, pre-adjustment, 5 sachets, 200 mg/75 mg Compound 1/Compound 2, read-out: AUC, Geometric Mean): 4070 ng·h/mL
Substrate of transporter (P-gp): P-gp,
Effect of administration with food on bioavailability ([7]; co-formulated mini-tablets): significantly increased
Cmax ([7]; Regimen F: single dose mini-tablets 200 mg/120 mg Compound 1/Compound 2, fasting): 123 ng/mL
AUC(0-inf) [7, 14]: 432 ng·h/mL
AUC(0-t) [7, 14]: 428 ng·h/mL
half-life [7, 14]: 5.61 h
Tmax [7, 14]: 1 h
Cmax ([7]; Regimen G: single dose mini-tablets 200 mg/120 mg Compound 1/Compound 2, non-fasting): 166 ng/mL
AUC(0-inf) [7, 15]: 704 ng·h/mL
AUC(0-t) [7, 15]: 699 ng·h/mL
half-life [7, 15]: 6.42 h
Tmax [7, 15]: 1.75 h
Cmax ([7]; Regimen J: single dose two Compound 1 tablets (100 mg each) and three Compound 2 tablets (40 mg each), fasting): 212 ng/mL
AUC(0-inf) [7, 16]: 742 ng·h/mL
AUC(0-t) [7, 16]: 738 ng·h/mL
half-life [7, 16]: 5.93 h
Tmax [7, 16]: 1.5 h
AUC of mini-tablets lower than that of regular tablets (fasting) ([7]; mini-tablets with food, 200 mg Compound 1): 5%
AUC of mini-tablets lower than that of regular tablets (fasting) ([7]; mini-tablets without food, 200 mg Compound 1 / 120 mg Compound 2, same solid dispersion formulation): 41%
AUC (clinical): 4800 ng·h/mL
AUC ([8]; blood, Table 13, 3 to <6 years old, N 10, predicted): 6310 ng·h/mL
AUC ([8]; blood, Table 13, 6 to <9 years old, N 9, predicted): 5770 ng·h/mL
AUC ([8]; blood, Table 13, 9 to <12 years old, N 10, predicted from all PK information collected in the study): 5180 ng·h/mL
AUC ([8]; in vivo, Table 13a, 3 to <6 years old, N 10, predicted): 8990 ng·h/mL
AUC ([8]; in vivo, Table 13a, 6 to <9 years old, N 9, predicted): 5160 ng·h/mL
AUC ([8]; in vivo, Table 13a, 9 to <12 years old, N 10, predicted): 8120 ng·h/mL
Compound: CC(C)(C)[C@@H]1NC(=O)O[C@@H]2CCC[C@H]2OC/C=C/C(F)(F)c2nc3ccccc3nc2O[C@@H]2C[C@@H](C(=O)N[C@]3(C(=O)NS(=O)(=O)C4(C)CC4)C[C@H]3C(F)F)N(C2)C1=O [Compound 1]
Exposures in children aged 3 to <12 years vs adolescents 12 to <18 years and adults from Phase 2/3 studies ([6]; recommended doses according to body weight): comparable
